Assay results as given in publication PMC10879537 (Nature Communications, 2024).
Where “and” joins values, the source holds several entries; their conditions need not be identical. Equal values may be shown once. Read-outs that look alike come from different tables or passages of the source.

Experiments:
[1] = tested on: SARS-CoV-2 trVLP
[2] = tested on: Huh 7 cells
[3] = tested on: GX_P2V; assay: organism not typed; type: cell-based, Guangxi pangolin-CoV (GX_P2V); details: for inhibition at 6.25 µM: Vero C1008, read-out: Inhibition against GX_P2V, full-time treatment
[4] = tested on: GX_P2V; assay: organism not typed; type: cell-based, Guangxi pangolin-CoV (GX_P2V); details: for inhibition at 0.193125 µM / inhibition at 0.39 µM / inhibition at 0.49485 µM / inhibition at 0.79588 µM / inhibition at 1.09691 µM / inhibition at 1.39794 µM / inhibition at 1.69897 µM / inhibition at 0.78 µM: Vero C1008, 48 h, read-out: Percentage of Inhibition (%)
[5] = tested on: SADS-CoV strain CN/GDWT/2017; assay: cells; type: cell-based, swine acute diarrhoea syndrome coronavirus (SADS-CoV)
[6] = tested on: SARS-CoV pseudotyped virus; assay: microbe, parasite or virus in culture; type: cell-based; details: for EC50: read-out: EC50 against SARS-CoV pseudotyped virus
[7] = tested on: SARS-CoV-2 pseudotyped virus; assay: microbe, parasite or virus in culture; type: cell-based
[8] = tested on: SARS-CoV-2 trVLP; type: cell-based
[9] = tested on: PEDV strain CV777; assay: microbe, parasite or virus in culture; type: cell-based, porcine epidemic diarrhea virus (PEDV)
[10] = tested on: SARS-CoV-2 live virus (SARS-CoV-2/WH-09/human/2020/CHN); assay: microbe, parasite or virus in culture; type: cell-based
[11] = tested on: MERS-CoV pseudotyped virus; assay: microbe, parasite or virus in culture; type: cell-based
[12] = in vitro; details: African green monkey
[13] = in vitro; details: human
[14] = tested on: SARS-CoV-2 trVLP; assay: microbe, parasite or virus in culture
[15] = in vitro; details: human, Caco-2
[16] = CC50, cytotoxicity to Huh 7 cells (Fig. 4B, SADS-CoV panel)
[17] = Severe acute respiratory syndrome coronavirus 2, Vero C1008, read-out: EC50 against diverse SARS-CoV-2-related viruses (summary statement)
[18] = Vero C1008, read-out: EC50 against GX_P2V
[19] = Huh-7, read-out: EC50 against SADS-CoV
[20] = Severe acute respiratory syndrome coronavirus
[21] = Severe acute respiratory syndrome coronavirus 2, 24 h, read-out: EC50 against SARS-CoV-2 pseudotyped virus
[22] = Porcine epidemic diarrhea virus, Huh-7, read-out: EC50 against PEDV
[23] = Severe acute respiratory syndrome coronavirus 2, read-out: EC50 SARS-CoV-2 trVLP
[24] = Severe acute respiratory syndrome coronavirus 2, Vero C1008, read-out: SARS-CoV-2 (Vero E6) EC50
[25] = Middle East respiratory syndrome-related coronavirus, Huh-7, read-out: EC50 against MERS-CoV pseudotyped virus
[26] = Vero C1008, read-out: EC50 GX_P2V
[27] = Vero C1008, read-out: EC50 against GX_P2V, repeated experiment
[28] = Severe acute respiratory syndrome coronavirus 2, read-out: EC50 SARS-CoV-2pseudotypedvirus

| Compound | SI (SARS-CoV-2 trVLP, Caco 2-N) [1] | Time of addition of anti-GX_P2V activity, Entry [3] | Time of addition of anti-GX_P2V activity, Full-time [3] | Time of addition of anti-GX_P2V activity, Post-entry [3] | Time of addition of anti-SARS-CoV-2 trVLPs activity, Entry [8] | Time of addition of anti-SARS-CoV-2 trVLPs activity, Full-time [8] | Time of addition of anti-SARS-CoV-2 trVLPs activity, Post-entry [8] | CC50 at 48 h [12] | CC50 [13] | CC50 [13, 16] | inhibition at 0.79588 µM [4] | inhibition at 1.09691 µM [4] | EC50 [5, 19] | EC50 [6, 20] | EC50 [9, 22] | EC50 [14, 23] | EC50 [10, 24] | CC50 at 48 h [15] | EC50 [11, 25] | inhibition at 1.39794 µM [4] | further results |
| --- | --- | --- | --- | --- | --- | --- | --- | --- | --- | --- | --- | --- | --- | --- | --- | --- | --- | --- | --- | --- | --- |
| cycleanine | > 32.68 | 60.950 and 60.215 and 58.803 | 92.758 and 93.389 and 93.191 | 62.451 and 61.926 and 63.133 | 37.174 and 37.913 and 46.924 | 60.248 and 61.546 and 62.312 | 56.735 and 54.305 and 57.336 | – | – | – | – | – | – | – | – | – | – | – | – | – | EC50 ([1]; read-out: EC50 SARS-CoV-2 trVLP): 1.53 µM; CC50 [2]: > 12.5 µM; Percentage of Inhibition (%) [4]: 100%; EC50 ([4]; read-out: EC50 against GX_P2V): 1.49 µM; EC50 ([5]; read-out: EC50 against SADS-CoV): 2.77 µM; EC50 [6]: 3.2 µM; EC50 ([7]; read-out: EC50 SARS-CoV-2pseudotypedvirus): 6.54 µM; EC50 ([9]; read-out: EC50 against PEDV): 0.34 µM; EC50 ([10]; read-out: SARS-CoV-2 (Vero E6) EC50): 8.91 µM; EC50 ([11]; read-out: EC50 against MERS-CoV pseudotyped virus): 2.45 µM |
| COc1ccc2cc1Oc1ccc(cc1)C[C@H]1c3c(cc4c(c3Oc3cc5c(cc3OC)CCN(C)[C@@H]5C2)OCO4)CCN1C [Cepharanthine, reference compound] | > 31.25 | 88.370 and 86.873 and 86.696 | 99.145 and 99.093 and 99.139 | 88.656 and 88.646 and 88.662 | 63.189 and 64.430 and 67.089 | 95.064 and 95.621 and 95.146 | 74.095 and 72.335 and 71.421 | > 12.5 µM | 11 µM | > 12.5 µM | 96.7% | 100% | 1.03 µM | 1.37 µM | 0.2 µM | 1.6 µM | 2.19 µM | > 50 µM | 2.19 µM | – | EC50 [4, 17]: < 2 µM; inhibition at 0.193125 µM [4]: 46.4%; inhibition at 0.39 µM [4]: 20.4%; inhibition at 0.49485 µM [4]: 77.8%; EC50 [4, 18]: 1.78 µM; EC50 ([5]; Huh-7, read-out: EC50 SADS): 0.4 µM; Percentage of Inhibition (%) [6]: 99.382% and 89.647%; EC50 [7, 21]: 0.74 µM; Percentage of Inhibition (%) [9]: 99.988%; Percentage of Inhibition (%) [11]: 24.735% |
| COc1cc2c3cc1Oc1c(OC)c(OC)cc4c1[C@@H](Cc1ccc(O)c(c1)Oc1ccc(cc1)C[C@@H]3N(C)CC2)N(C)CC4 [Berbamine, berbamine] | > 6.13 | 53.007 and 53.569 and 52.218 | 99.845 and 99.848 and 99.866 | 93.479 and 93.373 and 93.128 | 49.832 and 46.966 and 50.173 | 90.853 and 91.022 and 89.926 | 85.087 and 83.404 and 83.155 | > 50 µM | – | > 25 µM | 33.8% | 96.4% | 5.84 µM | 5.55 µM | 0.5 µM | 8.15 µM | 19.9 µM | > 50 µM | 3.37 µM | 100% | CC50 at 48 h [13]: > 25 µM; inhibition at 1.69897 µM [4]: 100%; EC50 [4, 26]: 6.92 µM; EC50 ([5]; Huh-7, read-out: EC50 SADS): 3.33 µM; EC50 [7, 21]: 1.87 µM |
| COc1cc2c(cc1O)[C@@H](Cc1ccc(O)c(Oc3ccc(C[C@@H]4c5cc(OC)c(OC)cc5CCN4C)cc3)c1)N(C)CC2 [Daurisoline, daurisoline] | > 35.21 | 73.500 and 68.250 and 70.810 | 99.980 | 90.220 and 88.260 and 87.780 | 21.082 and 20.351 and 25.494 | 69.364 and 69.350 and 65.328 | 59.015 and 61.872 and 61.323 | > 50 µM | > 12.5 µM | – | – | – | 2.8 µM | 2.76 µM | 0.82 µM | – | 12.5 µM | > 50 µM | 2.46 µM | 100% | inhibition at 6.25 µM [3]: ~100%; inhibition at 0.193125 µM [4]: 6.47%; inhibition at 0.78 µM [4]: 63%; inhibition at 1.69897 µM [4]: 100%; EC50 [4, 18]: ~14.1 µM; EC50 [4, 27]: 10.6 µM; EC50 [7, 28]: 8.48 µM; EC50 ([14]; Severe acute respiratory syndrome coronavirus 2, read-out: EC50 against SARS-CoV-2 trVLP): 1.42 µM |
| COc1cc2c(cc1OC)[C@@H](Cc1ccc(Oc3cc(C[C@@H]4c5cc(OC)c(OC)cc5CCN4C)ccc3O)cc1)N(C)CC2 [Dauricine, dauricine] | > 17.61 | – | 94.280 and 92.940 and 93.040 | 24.420 and 36.380 and 19.300 | 75.941 and 76.217 and 74.799 | 87.622 and 86.812 and 85.889 | 74.686 and 90.971 and 75.807 | > 50 µM | – | > 12.5 µM | – | 10.1% | 0.84 µM | 2.63 µM | 1.7 µM | 2.84 µM | – | > 50 µM | 2.13 µM | 95.2% | CC50 at 48 h [13]: > 25 µM; Stage of the viral life cycle affected (time-of-addition) [3]: superior inhibitory activity during the entry stage compared with the post-entry stage; inhibition at 6.25 µM [3]: ~100%; inhibition at 1.69897 µM [4]: 100%; EC50 [4, 26]: 15.7 µM; EC50 [4, 27]: 13.1 µM; Percentage of Inhibition (%) [5]: 99.922%; EC50 [7, 28]: 6.58 µM; Percentage of Inhibition (%) [9]: 99.987% |
| COc1ccc2cc1Oc1ccc(cc1)C[C@H]1c3cc(c(OC)cc3CCN1C)Oc1c(O)c(OC)cc3c1[C@H](C2)N(C)CC3 [Fangchinoline, fangchinoline] | 24.05 | 98.527 and 98.293 and 98.495 | 99.636 and 99.587 and 99.561 | 96.715 and 95.065 and 93.301 | 64.788 and 62.324 and 70.383 | 98.422 and 98.513 and 99.025 | 80.036 and 76.348 and 75.577 | > 12.5 µM | 12.3 µM | > 12.5 µM | 95.4% | 100% | 2.23 µM | 1.73 µM | 0.2 µM | 1.93 µM | 5.01 µM | 46.4 µM | 4.47 µM | – | Percentage of Inhibition (%) [1]: 100%; EC50 [4, 17]: < 2 µM; inhibition at 0.39 µM [4]: 21%; inhibition at 0.49485 µM [4]: 97.5%; inhibition at 0.78 µM [4]: 14%; EC50 [4, 26]: 1.97 µM; Percentage of Inhibition (%), SARS-CoV-2 pseudotyped virus [7]: 100%; EC50 [7, 21]: 1.16 µM |
| COc1ccc2cc1Oc1ccc(cc1)C[C@H]1c3cc(c(OC)cc3CCN1C)Oc1c(OC)c(OC)cc3c1[C@H](C2)N(C)CC3 [Tetrandrine, reference compound] | > 17.86 | 99.931 and 99.920 | 99.968 and 99.974 and 99.976 | 99.868 and 99.847 and 99.852 | 36.455 and 44.889 and 48.206 | 99.957 and 99.767 and 99.878 | 89.364 and 97.266 and 89.859 | 21.9 µM | 11.7 µM | > 12.5 µM | 70.2% | 100% | 2.19 µM | 3.04 µM | 0.44 µM | 2.8 µM | 3.13 µM | > 50 µM | 2.17 µM | 100% | CC50 [12]: 21.9 µM; inhibition at 0.49485 µM [4]: 11.3%; inhibition at 1.69897 µM [4]: 100%; EC50 [4, 26]: 5.21 µM; Percentage of Inhibition (%) [6]: 99.687%; EC50 [7, 28]: 3.2 µM; Percentage of Inhibition (%) [11]: 99.674% and 99.511% |
